Source: patent US9359404B2, “Methods and products for treating preeclampsia and modulating blood pressure” (Scott & White Healthcare, priority 2011, dated 2016)
Ends that are not written are not given here.

Legend:
[1] = test system: pregnant mice with PE induced by TLR3 or TLR7 activation; experiment: Prevention of TLR3/TLR7-induced PE in pregnant mice, daily TPP gestational days 13-17; type: in vivo
Description: FIG. 14 is a series of graphs depicting results from the daily administration of the CLIP-displacing peptide TPP. Daily administration of the CLIP-displacing peptide TPP (“Pep”-gestational days 13-17) prevented the development of hypertension, endothelial dysfunction, proteinuria, fetal demise, increased γδT cells, and decreased regulatory T cells in pregnant (P) mice treated with the TLR7 agonist R837 (PR mice) or the TLR3 agonist poly I:C (PPIC mice) on gestational days 13, 15, and 17.
TPP was utilized to displace CLIP on immune cells in mice during pregnancy.

[2] = test system: pregnant mice; experiment: Total number of pups and malformed pups at day 18; type: in vivo, C57BL/6 mice; details: day 18, versus normal pregnancies or pregnancies treated with TLR agonists
Procedure: (§1) Experimental Design: C57BL/6 female mice were bred with male C57BL/6 mice. At day 13 mice were injected IP with vehicle, Poly I:C (SIGMA PO913 50 mg), CLO097 (Invivogen tlrl-C95-5), or R837 (Invivogen tlrl imq) with or without TPP (FRIMAVLAS (SEQ ID NO: 5). Mice were injected a total of 3 times, every other day. At day 18 mice were euthanized, uterus/pups, blood, blood vessels, and spleen were removed.
The number of pups and malformed pups was relatively consistent across all groups at this time point.

[3] = test system: splenic CLIP+γδ T and B cells; experiment: Splenic CLIP+ γδ T cells and B cells after TLR3 or TLR7 activation in pregnant mice (flow cytometry); type: in vivo; details: for splenic CLIP+γδ T cells: pregnant mice treated with TLR agonist versus vehicle-treated pregnant controls
Description: Next, it was important to determine whether this effect also happens in vivo. Therefore, we tested whether TLR activation via TLR3 or TLR7, which cause PE in mice only if they are pregnant, increases splenic CLIP+γδ T and B cells in mice.
It was shown that MHC class II engagement, in the absence of antigen receptor engagement, can lead to the death of APCs including B cells. Since TLR-mediated activation of B cells results in ectopic CLIP expression (FIGS. 11 and 12) we sought to determine whether CLIP serves as a negative regulator of B cell death. To test this mouse splenic B cells from C57B16 mice or CLIP KO mice were activated, with or without a TLR agonist, for 48 hrs. […] Splenocytes were analyzed by flow cytometry.

[4] = test system: pregnant mice; experiment: Systolic blood pressure (tail-cuff plethysmography) in pregnant mice given TLR agonists with or without TPP; type: in vivo, C57BL/6 mice; details: pregnant mice treated with TLR agonist alone, day 17
Procedure: as §1
Blood Pressure: Systolic arterial blood pressure was measured by tail-cuff plethysmography. […] were trained for three days prior to data collection. Animals were warmed to 32° C. and measurements were taken using an IITC Model 59 amplifier (Woodland Hills, Calif.), a system which correlates well with telemetry measurements of systolic blood pressure.
Pregnant mice (P) were treated with one of three TLR agonists to induce a physiological condition which mimics preeclampsia. Poly I:C is a TLR3 agonist and is well established in inducing characteristics of preeclampsia in mice. R837 is a […] activator of TLR7 but not TLR8. Similar to Poly I:C R837 induces characteristics of preeclampsia in mice. CLO097 is a […] that activates TLR7 and TLR8. While CLO097 induces some of the characteristics of preeclampsia the response is somewhat muted. […] The blood pressure of each mouse was measured on day 17 following treatment.

[5] = test system: Aortic rings; experiment: Vasodilation/endothelial function of aortic rings (isometric force transducer); type: in vivo; details: vessels of TLR agonist-treated pregnant mice, phenylephrine contraction, acetylcholine relaxation
Procedure: Experimental Design: Mice were treated as described in Example 1.
Vasodilation/Endothelial Function: Aortic rings were connected to an isometric force transducer in a custom-made 15-ml organ chamber filled with 37° C. physiological salt solution (119 mM NaCl, 4.7 mM KCl, 25 mM NaHCO3, 1.18 mM KH2PO4, 1.17 mM MgSO4-7H2O, 11.1 mM Dextrose, 2.5 mM CaCl2) with 95% O2-5% CO2. All experiments were performed in the presence of indomethacin […] to inhibit prostacyclin production by cyclooxygenase. Passive tension on the vessels was set at 400 mg based on previously generated length-tension curves, and isometric force generation was recorded continuously with a PowerLab system (AD Instruments, Colorado Springs, Colo.). After a 60-min equilibration period, vessels were contracted with phenylephrine […] and repeated until reproducible contractions were obtained. […] was administered to test the functional integrity of endothelium as measured by a relaxation response. Concentration-response curves were obtained in a half-log, cumulative fashion in response to acetylcholine (1 nM to […]) following contraction to an EC70 concentration of phenylephrine. Relaxation responses were expressed as percent relaxation from phenylephrine-induced contraction. […]

[6] = test system: CLIP on the surface of B220 cells; experiment: Immune cell markers on splenocytes: CLIP on B220 cells; type: in vivo; details: pregnant mice, Poly I:C alone
Procedure: Experimental Design: Mice were treated as described in Example 1. Splenocytes were isolated and stained for CD3, CD4, CD8, CD11b, Ly6G/C, CD25, FoxP3, CD19, B220, CD5, CLIP, and Gamma Delta TCR.
FIG. 9 is a set of graphs that depicts the removal of all CLIP (9A) versus bright CLIP (9B) and FIG. 9C from the surface of B220 cells. […] TLR agonists include CLO097; R837, and Poly I:C. FIG. 9C depicts the percentage of CLIP+cells resulting from Poly I:C stimulation with and without TPP.

FRIMAVLAS [TPP, FRIMAVLAS]
safety, side effects on the mother or the pups [1]: safe in mice and has no side effects on the mother or the pups
number of malformed pups [2]: caused no increase
total number of pups [2]: caused no increase

CC(C)Cn1cnc2c(N)nc3ccccc3c21 [R837]
splenic CLIP+γδ T cells [3]: increased significantly
blood pressure [4]: significantly increased blood pressure
relaxation response [5]: relaxation response is delayed

Poly I:C
CLIP+ B cells [6]: significant increase
B cell death (splenic B cells) ([3]; PE mice versus normal pregnancy): did not experience the increase in B cell death
splenic CLIP+γδ T cells [3]: increased significantly
blood pressure [4]: significantly increased blood pressure
relaxation response [5]: relaxation response is delayed
